This assay concerns GAP-43+ puncta. The assay can be described thus: GAP-43 immunostaining of dorsal hippocampus after neonatal HI. The class given is in vivo, mouse. Here is the method:
Neuronal nuclei (NeuN), growth associated protein 43 (GAP-43), synapsin I (SYN), vesicular glutamate transporter 1 (VGLUT1), Glial Fibrillary Acidic Protein (GFAP) and ionized calcium-binding adapter molecule 1 (Iba-1) were visualized in the cornu ammonis (CA) and dentate gyrus (DG) of the dorsal hippocampus by immunohistochemistry. Briefly, following heat-induced antigen retrieval with 0.01 M citrate buffer (pH 6, 0.05% Tween 20) for 3×5 min, sections were washed 3×5 min with PBS-T (0.05% Tween 20), non-specific protein binding was reduced by incubation with blocking buffer [4% normal donkey serum (NeuN and Iba-1), 1% bovine serum albumin (GAP-43 and SYN), 3% normal goat serum (VGLUT1), 2% bovine serum albumin (GFAP) in PBS-T] for 1 h at room temperature (RT). Tissue was then incubated with the primary antibody [anti-NeuN biotinylated (1:200, MAB 377B, Millipore, Mass., USA), anti-GAP-43 (1:1000, MAB347, Millipore, Mass., USA), anti-SYN (1:150, SC-7379, Santa Cruz, Calif., USA), anti-VGLUT1 (1:500, AB5905, Millipore, Mass., USA), anti-GFAP (1:200, Z0334, Dako, Stockholm, Sweden), anti-Iba-1 (1:500, 019-19741, Wako, Osaka, Japan)] in blocking buffer overnight at 4° C. One slide per staining batch was incubated only with blocking buffer without primary antibody and used as a negative control. […]
NeuN positive cells, GFAP positive relative area, as well as GAP-43, SYN, and VGLUT1 positive puncta were counted by using MetaMorph software (ver. 7.8.6, Molecular Devices, CA, USA) on confocal images obtained with a 20× (NeuN and GFAP) or 63× (GAP-43, SYN, and VGLUT1) objective (Carl Zeiss LSM 700 Laser Scanning Microscope, Jena, Germany). Iba-1 positive cell somata were counted on bright field images obtained with a 20× objective (Nikon Eclipse 80i). […]

Consider “C3a: Purified human C3a peptide (Complement Technologies), C3a receptor agonist, amino acid sequence SEQ ID NO: 1”, for which the “density of GAP-43+ puncta in CA1” value (between groups) is on record as “did not find any differences between groups”. The “expression of GAP-43 in the dentate gyrus” value (mouse, in vivo) is on record as “No effect”. Further, the “average GAP-43+ punctum area in CA1 of HI injured hippocampus vs sham mice” value (p<0.05 for PBS) was “PBS treated, but not C3a treated, mice was larger compared with sham mice”.

Values taken from patent publication US11266715B2, “C3A receptor agonists for use against ischemic brain injury, stroke, traumatic brain injury, spinal cord injury and neurodegenerative disorders” (priority 2016, dated 2022).
